Source: PubChem BioAssay (NCI)
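Where inhibition never reached the appropriate level, the endpoint shown equals the highest concentration tested. Otherwise, values were interpolated linearly from a five-concentration, 48-hour dose response in 96-well plates. TGI: concentration producing complete growth inhibition.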

Experiments:
Experiment in all cases: growth of human tumour cells (NCI), 48 h
A549 NSCLC = tested on: A549 NSCLC
KM12 colon = tested on: KM12 colon
UO-31 renal = tested on: UO-31 renal
SF-539 CNS = tested on: SF-539 CNS
OVCAR-8 ovarian = tested on: OVCAR-8 ovarian
T-47D breast = tested on: T-47D breast
HOP-92 NSCLC = tested on: HOP-92 NSCLC
TK-10 renal = tested on: TK-10 renal
786-0 renal = tested on: 786-0 renal
MDA-MB-231 breast = tested on: MDA-MB-231 breast
HOP-62 NSCLC = tested on: HOP-62 NSCLC
NCI-H460 lung = tested on: NCI-H460 lung
EKVX NSCLC = tested on: EKVX NSCLC
SK-MEL-5 melanoma = tested on: SK-MEL-5 melanoma
SR leukemia = tested on: SR leukemia
COLO 205 colon = tested on: COLO 205 colon
HS 578T breast = tested on: HS 578T breast
U251 CNS = tested on: U251 CNS
NCI-H23 lung = tested on: NCI-H23 lung
UACC-62 melanoma = tested on: UACC-62 melanoma
SF-295 CNS = tested on: SF-295 CNS
OVCAR-5 ovarian = tested on: OVCAR-5 ovarian
CAKI-1 renal = tested on: CAKI-1 renal
CCRF-CEM leukemia = tested on: CCRF-CEM leukemia
NCI/ADR-RES ovarian = tested on: NCI/ADR-RES ovarian
NCI-H226 lung = tested on: NCI-H226 lung
MCF7 breast = tested on: MCF7 breast
SW-620 colon = tested on: SW-620 colon
UACC-257 melanoma = tested on: UACC-257 melanoma
MOLT-4 leukemia = tested on: MOLT-4 leukemia
LOX IMVI melanoma = tested on: LOX IMVI melanoma
DU-145 prostate = tested on: DU-145 prostate
MALME-3M melanoma = tested on: MALME-3M melanoma
MDA-MB-435 = tested on: MDA-MB-435
K-562 leukemia = tested on: K-562 leukemia
SN12C renal = tested on: SN12C renal
SNB-75 CNS = tested on: SNB-75 CNS
HCT-15 colon = tested on: HCT-15 colon
HT29 colon = tested on: HT29 colon
IGROV1 ovarian = tested on: IGROV1 ovarian
M14 melanoma = tested on: M14 melanoma
SK-MEL-2 melanoma = tested on: SK-MEL-2 melanoma
MDA-N = tested on: MDA-N
SK-MEL-28 melanoma = tested on: SK-MEL-28 melanoma
HCC-2998 colon = tested on: HCC-2998 colon
PC-3 prostate = tested on: PC-3 prostate
A498 renal = tested on: A498 renal
BT-549 breast = tested on: BT-549 breast
ACHN renal = tested on: ACHN renal
OVCAR-4 ovarian = tested on: OVCAR-4 ovarian
HCT-116 colon = tested on: HCT-116 colon
OVCAR-3 ovarian = tested on: OVCAR-3 ovarian
SNB-19 CNS = tested on: SNB-19 CNS
SF-268 CNS = tested on: SF-268 CNS
HL-60(TB) leukemia = tested on: HL-60(TB) leukemia
RXF 393 renal = tested on: RXF 393 renal
RPMI-8226 leukemia = tested on: RPMI-8226 leukemia
SK-OV-3 ovarian = tested on: SK-OV-3 ovarian
NCI-H522 lung = tested on: NCI-H522 lung

Measured: TGI

O=C1c2ccccc2C(=O)N1n1c(Cc2ccccc2)n[nH]c1=O
not listed: SF-268 CNS | HL-60(TB) leukemia | RXF 393 renal | RPMI-8226 leukemia | SK-OV-3 ovarian | NCI-H522 lung
> 100 µM: all other assays above

COc1cc(/C=C2/SC(c3ccccc3)N(c3ccc(NC(C)=O)cc3)C2=O)cc(OC)c1OC (stereo not drawn)
not listed: CCRF-CEM leukemia | SNB-75 CNS | IGROV1 ovarian | PC-3 prostate
> 100 µM: all other assays above

CNC(=O)c1ccccc1-[s+]1c2ccccc2c(=O)n1C (stereo not drawn)
not listed: NCI-H460 lung | SR leukemia | SNB-75 CNS | HCC-2998 colon | SK-OV-3 ovarian
> 100 µM: all other assays above

O=C1C2CCCCC2C(=O)N1n1c(Cc2ccc(Cl)cc2)n[nH]c1=O (stereo not drawn)
not listed: DU-145 prostate | SK-MEL-28 melanoma | HL-60(TB) leukemia
> 100 µM: all other assays above
